For nine compounds, IC50 results are on record in BindingDB's records for doi:10.1021/jm00007a018 (Laboratorios Menarini, 1995).

The target in this experiment is Platelet-activating factor receptor (Oryctolagus cuniculus). Briefly: […] was measured as the IC50 for aggregation of washed rabbit platelets after incubation for 30 min at 37 C.

The term IC50 denotes the concentration needed to halve the response being measured. The low end stands for inhibition by little substance, the high end for a need for much substance. In turn, `CCCCCCCCCCCC(C)CCCCCCOCC(COP(=O)([O-])OCC[N+](C)(C)C)OC` (centres undefined) [2-methoxy-3-(7-methyloctadecyloxy)propyl-2-trimethylammonioethylphosphorate] returned an IC50 of more than 200 µM.

Compound `COC(COCCCCCCCCCCC(=O)c1ccccc1)COP(=O)([O-])OCC[N+](C)(C)C` (centres undefined) [2-methoxy-3-(11-oxo-11-phenylundecyloxy)propyl-2-trimethylammonioethylphosphorate] yielded a half-inhibitory concentration (IC50) of more than 200 µM.

The compound `COC(COCCCCCCCCCCCCCCCCc1ccccc1)COP(=O)([O-])OCC[N+](C)(C)C` (centres undefined) [2-methoxy-3-(16-phenylhexadecyloxy)propyl-2-trimethylammonioethylphosphorate] yielded an IC50 of 20 µM. To `COC(COCCCCCCCCCCC(O)c1ccccc1)COP(=O)([O-])OCC[N+](C)(C)C` (centres undefined) [3-(11-hydroxy-11-phenylundecyloxy)-2-methoxypropyl-2-trimethylammonioethylphosphorate] belongs more than 200 µM; to `CCCCCCC(CCCCCC)CCCCCCCCCCCOCC(COP(=O)([O-])OCC[N+](C)(C)C)OC` (centres undefined) [3-(12-hexyloctadecyloxy)-2-methoxypropyl-2-trimethylammonioethylphosphorate], 1.5 µM; to `CCCCCCCCCCCC(CCCCCC)CCCCCCOCC(COP(=O)([O-])OCC[N+](C)(C)C)OC` (centres undefined) [2-methoxy-3-(7-hexyloctadecyloxy)propyl-2-trimethylammonioethylphosphorate], more than 200 µM.

With `CCCCCCCCC(CCCCCCOCC(COP(=O)([O-])OCC[N+](C)(C)C)OC)c1ccccc1` (centres undefined) [2-methoxy-3-(7-phenylpentadecyloxy)propyl-2-trimethylammonioethylphosphorate], the 50% inhibitory concentration (IC50) was more than 200 µM.

Take `CCCCCCCCCCCCCCCCC(=O)COCC(COP(=O)([O-])OCC[N+](C)(C)C)OC` (centres undefined) [2-methoxy-3-(2-oxooctadecyloxy)propyl-2-trimethylammonioethylphosphorate]: the IC50 was more than 200 µM.

`CCCCCCCCCCCC(=O)CCCCCCOCC(COCCCCC[N+](C)(C)C)OC` (centres undefined) [{5-[2-Methoxy-3-(7-oxo-octadecyloxy)-propoxy]-pentyl}-trimethyl-ammonium; bromide] had an IC50 of more than 200 µM.
